Reference: US9510598B2, “Nitrogen-containing heterocyclic compounds for plant disease control” (BAYER CROPSCIENCE AG, priority 2012, dated 2016)
Several values for one entry are separate records, joined by “and”; a condition that tells them apart may be missing. Identical values can stand only once. Like-named read-outs stand apart in the source and are kept apart here.

Assays:
[1] = tested on: Septoria tritici; test: In vivo preventive test on Septoria tritici (leaf spot on wheat); settings: 500 ppm; wheat plants sprayed 24 hours before contamination; grading 21 to 28 days after contamination vs control plants
Summary of the method: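 Scipion wheat at 1-leaf stage sprayed with compound, controls receiving acetone/tween/DMSO/water vehicle; 24 h later leaves inoculated with Septoria tritici spores (500 000 spores per ml). Efficacy (%) graded versus control plants 21 to 28 days after contamination.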

[2] = tested on: Sphaerotheca fuliginea; test: In vivo preventive test on Sphaerotheca fuliginea (powdery mildew on cucurbits); settings: 500 ppm; gherkin plants sprayed 24 hours before contamination; grading 12 days after contamination vs control plants
Experimental: Gherkin plants (“Vert petit de Paris” variety), sown in starter cups on a 50/50 peat soil-pozzolana substrate and grown at 24° C., are treated at the Z11 cotyledon stage by spraying with the active ingredient prepared as described above. Plants, used as controls, are treated with the mixture of acetone/tween/DMSO/water not containing the active material. After 24 hours, the plants are contaminated by spraying the cotyledons with an aqueous suspension of Sphaerotheca fuliginea spores (100 000 spores per ml). The spores are collected from infected plants. […] Grading (% of efficacy) is carried out 12 days after the contamination, in comparison with the control plants.

[3] = format: physicochemical
[4] = tested on: Botrytis cinerea; test: In vivo preventive test on Botrytis cinerea (grey mould); settings: 500 ppm; gherkin plants sprayed 24 hours before contamination; grading 4-5 days after contamination vs control plants
Experimental: Gherkin plants (“Vert petit de Paris” variety), sown in starter cups on a 50/50 peat soil-pozzolana substrate and grown at 24° C., are treated at the Z11 cotyledon stage by spraying with the active ingredient prepared as described above. Plants, used as controls, are treated with the mixture of acetone/tween/DMSO/water not containing the active material. After 24 hours, the plants are contaminated by spraying the cotyledons with an aqueous suspension of cryopreserved Botrytis cinerea spores (50 000 spores per ml). The spores are suspended in a nutrient solution composed of 10 g/L of PDB, 50 g/L of D-Fructose, 2 g/L of NH4NO3 and 1 g/L of KH2PO4. The contaminated gherkin plants are incubated at 17° C. and at 80% relative humidity. Grading (% of efficacy) is carried out 4-5 days after the contamination, in comparison with the control plants.

[5] = HPLC on reversed phase columns, method [a]: pH 2.7, 0.1% formic acid in water / acetonitrile, linear gradient 10% to 95% acetonitrile
[6] = method [a]: HPLC/LC-MS on reversed phase at pH 2.7, 0.1% formic acid in water / acetonitrile, gradient 10% to 95% acetonitrile
[7] = method [a]: HPLC/LC-MS on reversed phase at pH 2.7, 0.1% formic acid in water / acetonitrile, linear gradient 10% to 95% acetonitrile

| log P [3, 5] | log P [3, 6] | log P [3, 7] | Log P ([3]; method [a]: HPLC/LC-MS on reversed phase at pH 2.7, 0.1% formic acid in water and acetonitrile, linear gradient 10% to 95% acetonitrile) | log P ([3]; HPLC on reversed phase columns, method [a]: pH 2.7, 0.1% formic acid in water and acetonitrile, linear gradient 10% to 95% acetonitrile) | Compound | % of efficacy (protection) [1] | % of efficacy (protection) [2] | % of efficacy (protection) [4] [%] | chromatographic logP ([3]; HPLC reversed phase, pH 2.7, 0.1% formic acid in water / acetonitrile, linear gradient 10% to 95% acetonitrile, calibration with alkan-2-ones, read-out: log P (HCOOH)) |
| --- | --- | --- | --- | --- | --- | --- | --- | --- | --- |
| 2.13[a] | – | – | – | – | C#Cc1cnc2ccc(C3=NOC(C)(C(=O)NC4CC4)C3)cc2c1 (stereo not drawn) [compound 314] | 100% | 81% | – | – |
| 1.84[a] | – | – | – | – | C#Cc1cnc2ccc(C3=NOC(C)(C(=O)NC)C3)cc2c1 (stereo not drawn) [compound 531] | 100% | 98% | 100 | – |
| 2.96[a] | – | – | – | – | C#Cc1cnc2c(Cl)cc(C3=NOC(C)(C(=O)NC(C)C)C3)cc2c1 (stereo not drawn) [compound 543] | 100% | 100% | 100 | – |
| 2.77[a] | – | – | – | – | C#Cc1cnc2ccc(C3=NOC(C)(C(=O)NCCCOCC(F)(F)F)C3)cc2c1 (stereo not drawn) [compound 326] | 98% | 88% | – | – |
| 3.48[a] | – | – | – | – | CCOCCCNC(=O)C1(C)CC(c2cc(C)c3ncc(Br)cc3c2)=NO1 (racemic) [compound 547] | – | 100% | 100 | – |
| – | 2.54[a] | – | – | – | COCC(C)NC(=O)C1(C)CC(c2ccc3ncc(Br)cc3c2)=NO1 (racemic) [compound 368] | 100% | 100% | – | – |
| – | – | 2.31^[a] | – | – | CCn1cc(CNC(=O)C2(CF)CC(c3ccc4ncc(Br)cc4c3)=NO2)c(C)n1 (stereo not drawn) [compound 75] | – | 94% and 98% | 93 | – |
| 2.78[a] | – | – | – | – | COC1(C(=O)NCc2cnc(C)cn2)CC(c2cc(C)c3ncc(Br)cc3c2)=NO1 (stereo not drawn) [compound 596] | 100% | 83% | 99 | – |
| 3.04[a] | – | – | – | – | C#Cc1cnc2c(C)cc(C3=NOC(C)(C(=O)NCCCOCC)C3)cc2c1 (racemic) [compound 546] | 83% | 100% | 100 | – |
| 2.50[a] | – | – | – | – | C#Cc1cnc2c(C)cc(C3=NOC(C)(C(=O)NCc4cnc(C)cn4)C3)cc2c1 (stereo not drawn) [compound 535] | 100% | 100% | 100 | – |
| 2.64[a] | – | – | – | – | C#Cc1cnc2ccc(C3=NOC(C(=O)NCC4COC(C)(C)O4)(C(F)F)C3)cc2c1 (stereo not drawn) [compound 614] | 97% | 92% | 100 | – |
| 2.12[a] | – | – | – | – | C#Cc1cnc2ccc(C3=NOC(C)(C(=O)NCC)C3)cc2c1 (stereo not drawn) [compound 527] | 97% | 94% | 100 | – |
| – | – | 2.69^[a] | – | – | CCOCCCNC(=O)C1(C)CC(c2ccc3ncc(Br)cc3c2)=NO1 (stereo not drawn) [compound 32] | 79% and 97% | 100% | 98 | – |
| 3.15[a] | – | – | – | – | C#Cc1cnc2c(Cl)cc(C3=NOC(C)(C(=O)NC4CCC4)C3)cc2c1 (stereo not drawn) [compound 544] | 100% | 98% | 100 | – |
| – | 1.98[a] | – | – | – | C#Cc1cnc2ccc(C3=NOC(C)(C(=O)Nc4cnn(C)c4)C3)cc2c1 (stereo not drawn) [compound 462] | 100% | 98% | 98 | – |
| – | – | 2.17^[a] | – | – | C#Cc1cnc2ccc(C3=NOC(C)(C(=O)NCC4CCCO4)C3)cc2c1 (stereo not drawn) [compound 132] | 100% | 94% | 98 | – |
| – | – | 2.64^[a] | – | – | C#Cc1cnc2ccc(C3=NOC(C)(C(=O)NCc4cnn(Cc5ccccc5)c4)C3)cc2c1 (stereo not drawn) [compound 185] | 86% | 78% | 95 | – |
| 2.78[a] | – | – | – | – | CCn1cc(CNC(=O)C2(OC)CC(c3cc(Cl)c4ncc(Br)cc4c3)=NO2)c(C)n1 (stereo not drawn) [compound 566] | 100% | 89% | – | – |
| – | – | 2.92^[a] | – | – | C#Cc1cnc2ccc(C3=NOC(C)(C(=O)NC4CC4C4CC4)C3)cc2c1 (stereo not drawn) [compound 216] | 100% | 98% | 99 | – |

| log P [3, 5] | log P [3, 6] | log P [3, 7] | Log P ([3]; method [a]: HPLC/LC-MS on reversed phase at pH 2.7, 0.1% formic acid in water and acetonitrile, linear gradient 10% to 95% acetonitrile) | log P ([3]; HPLC on reversed phase columns, method [a]: pH 2.7, 0.1% formic acid in water and acetonitrile, linear gradient 10% to 95% acetonitrile) | Compound | % of efficacy (protection) [1] | % of efficacy (protection) [2] | % of efficacy (protection) [4] [%] | chromatographic logP ([3]; HPLC reversed phase, pH 2.7, 0.1% formic acid in water / acetonitrile, linear gradient 10% to 95% acetonitrile, calibration with alkan-2-ones, read-out: log P (HCOOH)) |
| --- | --- | --- | --- | --- | --- | --- | --- | --- | --- |
| 2.96[a] | – | – | – | – | C#Cc1cnc2ccc(C3=NOC(C)(C(=O)NC(C)c4ccsc4)C3)cc2c1 (stereo not drawn) [compound 336] | 100% | 81% | – | – |
| 2.28[a] | – | – | – | – | C#Cc1cnc2ccc(C3=NOC(C)(C(=O)NC(C)c4nccs4)C3)cc2c1 (stereo not drawn) [compound 334] | 100% | 94% | – | – |
| 3.17[a] | – | – | – | – | CC(NC(=O)C1(C)CC(c2ccc3ncc(Br)cc3c2)=NO1)C1CC1 (stereo not drawn) [compound 332] | 100% | 98% | – | – |
| 2.75^[a] | – | – | – | – | CCn1cc(CNC(=O)C23CCCC2C(c2ccc4ncc(Br)cc4c2)=NO3)c(C)n1 (stereo not drawn) [compound 261] | 97% | 85% | – | – |
| – | 2.88[a] | – | – | – | CCC(COC)NC(=O)C1(C)CC(c2ccc3ncc(Br)cc3c2)=NO1 (racemic) [compound 377] | 100% | 98% | – | – |
| 2.77[a] | – | – | – | – | C#Cc1cnc2ccc(C3=NOC(C)(C(=O)NC(C)C(F)(F)F)C3)cc2c1 (stereo not drawn) [compound 343] | 100% | 100% | – | – |
| 2.18[a] | – | – | – | – | C#Cc1cnc2ccc(C3=NOC(C)(C(=O)NC(C)C4CCOC4)C3)cc2c1 (stereo not drawn) [compound 341] | 100% | 98% | – | – |
| – | – | – | 3.23^[a] | – | CCn1cc(CNC(=O)C2(C(F)(F)F)CC(c3cc4cc(Br)cnc4c(F)c3F)=NO2)c(C)n1 (stereo not drawn) [compound 6] | 71% | 89% | – | – |
| – | 2.39[a] | – | – | – | C#Cc1cnc2ccc(C3=NOC(OC)(C(=O)NCCCOCC)C3)cc2c1 (stereo not drawn) [compound 408] | 100% | 100% | – | – |
| – | – | – | – | 3.21[a] | C=CC1(C(=O)NC(C)C)CC(c2ccc3ncc(I)cc3c2)=NO1 (stereo not drawn) [compound 731] | 100% | 75% | – | – |
| – | – | – | – | – | CCOC(=O)CC(C)NC(=O)C1(C)CC(c2ccc3ncc(Br)cc3c2)=NO1 (mixture of isomers) [compound 505] | – | 98% | 75 | – |
| 3.13[a] | – | – | – | – | CC(NC(=O)C1(C)CC(c2ccc3ncc(Br)cc3c2)=NO1)C(F)(F)F (stereo not drawn) [compound 345] | 100% | 94% | – | – |
| – | 2.44[a] | – | – | – | C#Cc1cnc2ccc(C3=NOC(CC)(C(=O)NC4CC4)C3)cc2c1 (racemic) [compound 439] | 93% | 78% | – | – |
| 1.44[a] | – | – | – | – | CC(NC(=O)C1(C)CC(c2ccc3ncc(Br)cc3c2)=NO1)c1ccncc1 (stereo not drawn) [compound 337] | 78% | 88% | – | – |
| – | – | 2.07^[a] | – | – | Cn1cc(CNC(=O)C2(C)CC(c3ccc4ncc(Br)cc4c3)=NO2)cn1 (stereo not drawn) [compound 176] | 93% | 83% | – | – |
| 3.11[a] | – | – | – | – | CC1(C(=O)NCCCOCC(F)(F)F)CC(c2ccc3ncc(Br)cc3c2)=NO1 (stereo not drawn) [compound 323] | 78% | 81% | – | – |
| – | – | – | – | – | CC(C)NC(=O)C1(C)CC(c2ccc3ncc(C#C[Si](C)(C)C)cc3c2)=NO1 (stereo not drawn) [Compound No. 150] | 100% | 95% | – | 4.41 |
| – | 1.95[a] | – | – | – | C#CCONC(=O)C1(C)CC(c2ccc3ncc(C#C)cc3c2)=NO1 (stereo not drawn) [compound 503] | 71% | 78% | – | – |

| Compound | log P [3, 5] | log P [3, 6] | log P [3, 7] | Log P ([3]; method [a]: HPLC/LC-MS on reversed phase at pH 2.7, 0.1% formic acid in water and acetonitrile, linear gradient 10% to 95% acetonitrile) | log P ([3]; HPLC on reversed phase columns, method [a]: pH 2.7, 0.1% formic acid in water and acetonitrile, linear gradient 10% to 95% acetonitrile) | % of efficacy (protection) [1] | % of efficacy (protection) [2] | % of efficacy (protection) [4] [%] | chromatographic logP ([3]; HPLC reversed phase, pH 2.7, 0.1% formic acid in water / acetonitrile, linear gradient 10% to 95% acetonitrile, calibration with alkan-2-ones, read-out: log P (HCOOH)) |
| --- | --- | --- | --- | --- | --- | --- | --- | --- | --- |
| COC1(C(=O)NC(C)C)CC(c2ccc3ncc(Br)cc3c2)=NO1 (single isomer, unassigned) [compound 284] | 2.58[a] | – | – | – | – | 100% | 100% | – | – |
